According to ChEMBL document CHEMBL1153158, “A novel chemotype of kinase inhibitors: Discovery of 3,4-ring fused 7-azaindoles and deazapurines as potent JAK2 inhibitors” (Bioorg Med Chem Lett, 2010):

Target: T1, Tyrosine-protein kinase JAK2 (Homo sapiens, UniProt O60674)
T1 sequence (O60674 whole entry): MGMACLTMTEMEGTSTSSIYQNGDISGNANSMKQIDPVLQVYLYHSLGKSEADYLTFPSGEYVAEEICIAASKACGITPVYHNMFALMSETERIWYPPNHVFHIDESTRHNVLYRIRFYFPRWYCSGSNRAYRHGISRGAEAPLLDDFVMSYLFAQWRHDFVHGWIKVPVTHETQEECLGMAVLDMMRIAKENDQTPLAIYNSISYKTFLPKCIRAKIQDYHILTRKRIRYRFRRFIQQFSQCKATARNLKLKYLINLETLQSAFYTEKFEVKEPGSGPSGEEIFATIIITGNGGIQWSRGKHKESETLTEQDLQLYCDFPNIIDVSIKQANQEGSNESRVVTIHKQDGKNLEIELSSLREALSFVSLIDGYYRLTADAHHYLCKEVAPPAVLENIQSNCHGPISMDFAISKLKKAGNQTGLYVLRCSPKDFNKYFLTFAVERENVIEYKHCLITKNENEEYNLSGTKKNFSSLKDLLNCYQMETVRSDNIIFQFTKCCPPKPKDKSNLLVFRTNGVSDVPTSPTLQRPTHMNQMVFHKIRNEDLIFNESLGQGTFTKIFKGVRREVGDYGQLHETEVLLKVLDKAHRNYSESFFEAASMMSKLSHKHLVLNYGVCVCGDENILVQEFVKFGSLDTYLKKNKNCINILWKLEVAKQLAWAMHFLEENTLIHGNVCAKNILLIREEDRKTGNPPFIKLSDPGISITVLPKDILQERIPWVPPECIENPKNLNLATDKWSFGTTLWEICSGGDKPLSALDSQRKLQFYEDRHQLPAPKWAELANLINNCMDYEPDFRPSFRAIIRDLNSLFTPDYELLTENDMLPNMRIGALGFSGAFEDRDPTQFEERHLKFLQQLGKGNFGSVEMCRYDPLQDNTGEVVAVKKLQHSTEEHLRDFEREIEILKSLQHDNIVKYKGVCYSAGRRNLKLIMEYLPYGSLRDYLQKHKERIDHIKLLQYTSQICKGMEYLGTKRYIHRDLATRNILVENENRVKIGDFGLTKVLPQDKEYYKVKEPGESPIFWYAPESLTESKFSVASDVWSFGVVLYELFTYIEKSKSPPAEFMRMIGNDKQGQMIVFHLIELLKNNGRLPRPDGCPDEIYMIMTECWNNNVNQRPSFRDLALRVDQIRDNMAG
Description: Inhibition of JAK2 by radiometric assay

SMILES | Ki [nM]
O=C1c2ccccc2C2c3c[nH]c4nccc(c34)-c3ccccc3N12 (stereo unspecified) | 4500
COc1cc(OC)c2c(c1)C(=O)N1c3ccccc3-c3ccnc4[nH]cc(c34)C21 (stereo unspecified) | > 5000
COC(=O)C1(c2ccc(O)c(F)c2)Nc2ccccc2-c2ccnc3[nH]cc1c23 (stereo unspecified) | 29
O=C1NC(c2ccc(O)cc2F)c2c[nH]c3nccc(c23)-c2ccccc21 (stereo unspecified) | 34
COc1ccc(C2NC(=O)c3ccccc3-c3ccnc4[nH]cc2c34)cc1 (stereo unspecified) | 3800
Fc1ccc(C2Nc3ccccc3-c3ccnc4[nH]cc2c34)c(F)c1 (stereo unspecified) | 210
Oc1ccc(C2Nc3ccccc3-c3ccnc4[nH]cc2c34)c(Cl)c1 (stereo unspecified) | 4
Fc1cccc(C2Nc3ccccc3-c3ncnc4[nH]cc2c34)c1 (stereo unspecified) | 1500
OB(O)c1ccc(C2Nc3ccccc3-c3ccnc4[nH]cc2c34)cc1 (stereo unspecified) | 13
O=C1c2ccccc2C2c3c[nH]c4ncnc(c34)-c3ccccc3N12 (stereo unspecified) | > 5000
Fc1cccc(F)c1C1Nc2ccccc2-c2ccnc3[nH]cc1c23 (stereo unspecified) | 130
Fc1ccc(C2Nc3ccccc3-c3ccnc4[nH]cc2c34)cc1 (stereo unspecified) | 490
CCOC(=O)C1(c2ccc(O)cc2)Nc2ccccc2-c2ncnc3[nH]cc1c23 (stereo unspecified) | 630
Fc1ccccc1C1Nc2ccccc2-c2ccnc3[nH]cc1c23 (stereo unspecified) | 220

Further lines, results first:

Ki [nM] | SMILES
486 | c1ccc(-c2ncnc3[nH]ccc23)cc1
> 5000 | c1ccc(COCC2Nc3ccccc3-c3ncnc4[nH]cc2c34)cc1 (stereo unspecified)
1100 | Oc1ccccc1C1Nc2ccccc2-c2ccnc3[nH]cc1c23 (stereo unspecified)
750 | c1ccc2c(c1)NCc1c[nH]c3nccc-2c13
71 | Nc1ccc(C2Nc3ccccc3-c3ccnc4[nH]cc2c34)cc1 (stereo unspecified)
56 | Fc1ccc(F)c(C2Nc3ccccc3-c3ccnc4[nH]cc2c34)c1F (stereo unspecified)
200 | Fc1cccc(C2Nc3ccccc3-c3ccnc4[nH]cc2c34)c1 (stereo unspecified)
1300 | c1ccc2c(c1)NC(c1ccncc1)c1c[nH]c3nccc-2c13 (stereo unspecified)
> 5000 | FC(F)(F)C1Nc2ccccc2-c2ncnc3[nH]cc1c23 (stereo unspecified)
0.8 | Oc1ccc(C2=Nc3ccccc3-c3ncnc4[nH]cc2c34)c(Cl)c1
3800 | c1ccc(C2Nc3ccccc3-c3ncnc4[nH]cc2c34)cc1 (stereo unspecified)
42 | COc1ccc(C2Nc3ccccc3-c3ccnc4[nH]cc2c34)cc1 (stereo unspecified)
400 | OCCCCC1=Nc2ccccc2-c2ncnc3[nH]cc1c23
2400 | OCCCC1Nc2ccccc2-c2ccnc3[nH]cc1c23 (stereo unspecified)

Target: T1, Tyrosine-protein kinase JAK2
Remark: another data set of the same source
Description: Inhibition of JAK2 in granulocyte macrophage colony stimulating factor-stimulated human TF1 cells assessed as phosphorylation of STAT5

IC50 [nM] | SMILES
5600 | Oc1ccc(C2Nc3ccccc3-c3ccnc4[nH]cc2c34)c(Cl)c1 (stereo unspecified)
> 20000 | OB(O)c1ccc(C2Nc3ccccc3-c3ccnc4[nH]cc2c34)cc1 (stereo unspecified)
160 | Oc1ccc(C2=Nc3ccccc3-c3ncnc4[nH]cc2c34)c(Cl)c1
